Counter-ions that a name gives are not always drawn. Like-named read-outs stand apart in the source and are kept apart here.
Assays:
[1] = target: T1, gluthathione reductase (GR) (Homo sapiens, UniProt P00390); experiment: Inhibition of recombinant GR (GSSG assay); type: biochemical
T1 sequence (P00390 44-522): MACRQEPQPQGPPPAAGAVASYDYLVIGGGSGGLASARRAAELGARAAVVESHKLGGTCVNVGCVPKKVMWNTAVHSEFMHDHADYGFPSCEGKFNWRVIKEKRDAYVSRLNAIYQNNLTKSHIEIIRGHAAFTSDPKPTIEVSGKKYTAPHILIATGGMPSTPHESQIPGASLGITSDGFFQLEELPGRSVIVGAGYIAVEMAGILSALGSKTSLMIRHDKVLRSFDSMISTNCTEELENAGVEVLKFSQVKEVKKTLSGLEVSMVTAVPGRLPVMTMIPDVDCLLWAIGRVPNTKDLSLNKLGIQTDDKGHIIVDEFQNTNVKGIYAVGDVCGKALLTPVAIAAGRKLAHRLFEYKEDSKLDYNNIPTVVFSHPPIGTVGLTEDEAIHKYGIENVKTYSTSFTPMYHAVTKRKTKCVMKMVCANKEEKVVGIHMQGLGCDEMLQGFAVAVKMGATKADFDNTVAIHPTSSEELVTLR
Experimental: (§1) Small molecule inhibition of recombinant thioredoxin reductase 1 (TrxR1) and gluthathione reductase (GR) was examined in 96-well plate format. 15 nM TrxR1 was incubated in the presence of 250 μM NADPH, 0.1 mg/ml BSA, and various concentrations of the compound of Example 1 (1% DMSO final) in 50 mM Tris (pH 7.5) and 2 mM EDTA buffer for 15 minutes. Following the incubation period, 2.5 mM DTNB was added to each well and the change in O.D. at 412 nm was followed. Percent activity was determined using DMSO vehicle and no TrxR1 (blank) controls. 2 nM GR was incubated in the presence of 250 μM NADPH, 0.1 mg/ml BSA, and various concentrations of compounds (1% DMSO final) in 50 mM Tris (pH 7.5) and 2 mM EDTA buffer for 15 minutes. Following the incubation period, 1 mM GSSG was added to each well and the change in O.D. at 340 nm was followed. Percent activity was determined using DMSO vehicle and no GR (blank) controls.

FaDu cell line = experiment: Cell viability inhibition, FaDu cell line; type: cell-based; conditions: Homo sapiens, Biological Example 4, 72 hrs
Experimental: Cell lines were plated 2000 cells/well in 96-well black optical plates in the presence of 10% FBS media containing 25 nM selenite. The following day cells were treated with various concentrations of the compound of Example 1 (0.1% DMSO final) and incubated for 72 hrs. After the incubation Cell-Quanti Blue reagent was added to each well and incubated for additional 3 hrs. Fluorescence was read ex:530 nm/em:590 nm, and percent of viability was determined using DMSO vehicle and no cell (blank) controls.
Using the assays described in Biological Example 1 to assess inhibition of recombinant TrxR1 and GR, the following IC50 values were obtained for the examples described herein. Further, following the protocol described in Biological Example 2, the following IC50 values were obtained for inhibition of cell viability using the FaDu cell line.

[2] = target: T2, recombinant thioredoxin reductase 1 (TrxR1) (Homo sapiens, UniProt Q16881); experiment: Inhibition of recombinant TrxR1 (DTNB assay); type: biochemical; conditions: read-out: TrxR inhibition (IC50)
T2 sequence (Q16881 151-649 limits assumed): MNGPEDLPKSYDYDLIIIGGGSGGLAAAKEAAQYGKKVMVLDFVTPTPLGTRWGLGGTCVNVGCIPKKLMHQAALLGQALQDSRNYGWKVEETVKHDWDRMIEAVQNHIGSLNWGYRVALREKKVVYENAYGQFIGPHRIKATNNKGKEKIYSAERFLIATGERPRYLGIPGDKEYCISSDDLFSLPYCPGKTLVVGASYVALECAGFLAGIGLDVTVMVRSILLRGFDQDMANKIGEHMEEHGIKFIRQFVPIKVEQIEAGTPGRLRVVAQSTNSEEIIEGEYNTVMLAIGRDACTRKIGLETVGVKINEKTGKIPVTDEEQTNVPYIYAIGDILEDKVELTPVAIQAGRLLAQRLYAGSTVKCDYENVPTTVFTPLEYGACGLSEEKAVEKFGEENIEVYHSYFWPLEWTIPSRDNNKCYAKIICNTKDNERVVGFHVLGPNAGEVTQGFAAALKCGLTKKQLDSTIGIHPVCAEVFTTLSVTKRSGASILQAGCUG
Experimental: as §1

[3] = Biological Example 1, 2 nM GR, 15 minutes incubation
[4] = Biological Example 1, 15 nM TrxR1, 15 minutes incubation

| IC50 ([1]; Biological Example 4) | IC50 ([2]; Biological Example 4) | SMILES | IC50 [1, 3] | IC50 (FaDu cell line) | IC50 [2, 4] |
| --- | --- | --- | --- | --- | --- |
| > 100000 nM | 221 nM | Cc1ccc(S(=O)(=O)c2ncccc2[N+](=O)[O-])cc1 [Example 3, 3-Nitro-2-tosylpyridine Hydrochloride] | > 100000 nM | 2550 nM | 282 nM |
| > 100000 nM | 103 nM | COc1ccc([N+](=O)[O-])c(S(=O)(=O)c2ccc(C)cc2)n1 [Example 6, 6-Methoxy-3-nitro-2-tosylpyridine] | – | 1380 nM | – |
| > 100000 nM | 228 nM | COc1ccc(S(=O)(=O)c2nc(OC)ccc2[N+](=O)[O-])cc1 [Example 7, 6-Methoxy-2-((4-methoxyphenyl)sulfonyl)-3-nitropyridine] | – | 2750 nM | – |
| 3570 nM | 16 nM | O=[N+]([O-])c1ccc(Cl)nc1S(=O)(=O)c1ccc(Cl)cc1 [Example 8, 6-Chloro-2-((4-chlorophenyl)sulfonyl)-3-nitropyridine] | – | 840 nM | – |
| 41700 nM | 70 nM | COc1ccc(S(=O)(=O)c2nc(Cl)ccc2[N+](=O)[O-])cc1 [Example 9, 6-Chloro-2-((4-methoxyphenyl)sulfonyl)-3-nitropyridine] | – | 510 nM | – |
| 14500 nM | 56 nM | O=[N+]([O-])c1ccc(Cl)nc1S(=O)(=O)c1ccccc1 [Example 10, 6-Chloro-3-nitro-2-(phenylsulfonyl)pyridine] | – | 250 nM | – |
| 23700 nM | 40 nM | Cc1ccc(S(=O)(=O)c2nc(Cl)ccc2[N+](=O)[O-])cc1 [Example 11, 6-Chloro-3-nitro-2-tosylpyridine] | – | 390 nM | – |
| > 100000 nM | 513 nM | COc1ccc(S(=O)(=O)c2nc(N(C)C)ccc2[N+](=O)[O-])cc1 [Example 12, 6-((4-Methoxyphenyl)sulfonyl)-N,N-dimethyl-5-nitropyridin-2-amine] | – | 7890 nM | – |
| > 100000 nM | 176 nM | CN(C)c1ccc([N+](=O)[O-])c(S(=O)(=O)c2ccc(Cl)cc2)n1 [Example 13, 6-((4-Chlorophenyl)sulfonyl)-N,N-dimethyl-5-nitropyridin-2-amine] | – | 12900 nM | – |
| > 100000 nM | 345 nM | CN(C)c1ccc([N+](=O)[O-])c(S(=O)(=O)c2ccccc2)n1 [Example 14, N,N-dimethyl-5-nitro-6-(phenylsulfonyl)pyridin-2-amine] | – | 5320 nM | – |
| > 100000 nM | 438 nM | Cc1ccc(S(=O)(=O)c2nc(N(C)C)ccc2[N+](=O)[O-])cc1 [Example 15, N,N-dimethyl-5-nitro-6-tosylpyridin-2-amine] | – | 5910 nM | – |

| SMILES | IC50 ([1]; Biological Example 4) | IC50 ([2]; Biological Example 4) | IC50 [1, 3] | IC50 (FaDu cell line) | IC50 [2, 4] |
| --- | --- | --- | --- | --- | --- |
| O=[N+]([O-])c1cccnc1S(=O)(=O)c1ccccc1 [Example 2, 3-Nitro-2-(phenylsulphonyl)pyridine Trifluoroacetate] | > 100000 nM | 289 nM | > 100000 nM | 1420 nM | 155 nM |
| COc1ccc([N+](=O)[O-])c(S(=O)(=O)c2ccccc2)n1 [Example 4, 6-Methoxy-3-nitro-2-(phenylsulphonyl)pyridine Trifluoroacetate] | 30800 nM | 24 nM | 25200 nM | 3260 nM | 24 nM |
| O=[N+]([O-])c1cccnc1S(=O)(=O)c1ccc(Cl)cc1 [Example 5, 2-((4-Chlorophenyl)sulphonyl)-3-nitropyridine Trifluoroacetate] | 93000 nM | 151 nM | 47900 nM | 1840 nM | 98 nM |

— patent US10899710B2, “Pyridines and their use in the treatment of cancer” (The United States of America, as represented by the …, priority 2015, dated 2021)
